Laboratory results: patent US10596296B2, “Heparan sulphates” (Agency for Science, Technology and Research, priority 2014, dated 2020)

How the values were obtained:
[1] = tested on: TGF-β1 signaling (pSMAD2, pSMAD3) in hMSCs; assay: Western blotting of pSMAD2/pSMAD3 in hMSCs treated with TGF-β1 and GAG; format: cell-based, human
Description: Primary hMSCs (Lonza) were isolated from the bone marrow mononuclear cells of a young healthy adult human donor by plastic adherence and characterized as previously described (30,31). The adherent cells were maintained in a basal media consisting of DMEM-low glucose (1000 mg/l, DMEM-LG) supplemented with 10% fetal calf serum, 100 U/ml penicillin, 100 μg/ml streptomycin and 2 mM L-glutamine, and cultured under standard conditions at 37° C. and 5% CO2 in a humidified atmosphere. Media replacement was every three days. Cells were detached with 0.125% trypsin/Versene (pH 7.0) upon reaching 75-80% confluence, and re-plated at a density of 3,000 cells/cm^2 under the same culture conditions. All experiments were carried out with cells at passage 5.
Human MSCs were cultured in 6-well plates in basal media for 24 h at a density of 10,000 cells/cm^2. TGF-β1 treatments were then prepared at either 1 ng/ml or 5 ng/ml alone or in the presence of either 10 μg/ml or 40 μg/ml of full length heparin, or 1 ng/ml of TGF-β1 with 10 μg/ml size-fractionated or selectively desulfated heparin, HS^PM, HS16+ or HS16−, and incubated at room temperature for 10 min before being added to the cells. Latent TGF-β1 (LTGF-β1) treatments were similarly prepared at 3.3 ng/ml alone or with 10 μg/ml of the various GAGs described above. For inhibitor studies, the cells were pre-treated for 30 min with 10 μM SB431542 (Sigma-Aldrich) or DMSO before treatment with TGF-β1. […] Samples were then immunoblotted with antibodies against SMAD2/3 (#3102, Cell Signaling), phosphorylated SMAD2 (pSMAD2, #3108, Cell Signaling), phosphorylated SMAD3 (pSMAD3, #9520, Cell Signaling) and actin (MAB1501R, Millipore). Densitometry was carried out using Quantity One software (version 4.6.6, Bio-Rad).

TGF-β1 = molecular target: T1, TGF-β1 (Homo sapiens, UniProt P01137); assay: SPR analysis of TGF-β1 binding to biotinylated heparin on SA chip
T1 construct: full length mature TGF-β1 is 112 amino acids in length
Description: Biotinylated heparin was prepared based on the protocol reported by Hernaiz et al. (33). Briefly, 20 mg of heparin was filter-sterilized (0.22 μm) in 1 ml of water and incubated with 8.6 μmol of N-hydroxysuccinimide-biotin (NHS-biotin) (Pierce) in 20 μl of dimethyl sulfoxide (DMSO) for 2 h at 4° C. The biotinylated heparin was then extensively dialyzed (7000 MWCO) to remove unreacted biotin. Immobilization of the biotinylated heparin onto a streptavidin (SA) sensor chip (GE Healthcare) was carried out using the immobilization wizard on the Biacore T100 (GE Healthcare) with a targeted immobilization level of approximately 40 response units (RUs). HBS-EP running buffer (10 mM HEPES, 150 mM NaCl, 3.0 mM EDTA, 0.05% (v/v) Tween 20, pH 7.4) was used for the immobilization.
TGF-β1-heparin interactions were effected by preparing a series of TGF-β1 protein samples (50 to 800 nM final concentration) diluted in HBS-EP-0.1 running buffer (0.1% instead of 0.05% (v/v) Tween 20). […] The sample solutions were then injected over the heparin-coated chip at a flow rate of 30 μl/min for 120 s, with HBS-EP-0.1 being subsequently passed over the chip for a further 1200 s to monitor TGF-β1 dissociation. After dissociation, the sensor surface on the chip was regenerated by 2 washes of 2 M NaCl injected at 30 μl/min for 60 s. The response was measured as a function of time (sensogram) at 25° C. […]

[2] = 6 h post-treatment, heparin and TGF-β1

T1 sequence (P01137 279-390 limits assumed): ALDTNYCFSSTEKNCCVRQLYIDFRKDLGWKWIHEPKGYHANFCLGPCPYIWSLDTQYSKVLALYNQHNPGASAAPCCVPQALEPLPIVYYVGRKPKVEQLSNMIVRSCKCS

heparin
pSMAD2 and pSMAD3 levels ([1]; 1 h post treatment, with TGF-β1): saturated
pSMAD2 level relative to equivalent dose of TGF-β1 without heparin [1, 2]: ~1.6 fold
pSMAD3 level relative to equivalent dose of TGF-β1 without heparin [1, 2]: ~1.35 fold
pSMAD levels relative to TGF-β1 alone ([1]; 24 h, heparin and TGF-β1): continued to be greater
pSMAD2 and pSMAD3 signal ([1]; TGF-β1 1 ng/mL with 40 μg/mL heparin, 6 h): unable to elicit the same effect
pSMAD2 and pSMAD3 levels ([1]; TGF-β1 1 ng/ml pre-incubated with 10 μg/ml GAG, 6 h): maintained a stronger pSMAD2 and pSMAD3 signal
pSMAD signal ([1]; TGF-β1 5 ng/mL with 10 or 40 μg/mL heparin, 6 h): neither dose of heparin was able enhance the pSMAD signal beyond that obtained from the growth factor alone
levels of pSMAD2 and pSMAD3 ([1]; heparin alone, no TGF-β1): No discernible levels
TGF-β1 binding to heparin immobilized on Biacore SA-chip (TGF-β1): bound in a dose-dependent manner
Kd (TGF-β1; TGF-β1 50 to 800 nM injected over heparin-coated SA chip): ~475 nM
